Source: patent publication US9724352B2, “Pyrrolo[2,1-F[1,2,4]triazine compounds, preparation methods and applications thereof” (Shanghai Institute of Materia Medica, Chinese Academy of …, priority 2012, dated 2017)
pIC50: −log10 of the molar value.

Columns and labels:
[1] = system: hepatoma cells L-BEL-7402; test: Proliferation of human cancer cell panel; type: cell-based; conditions: read-out: inhibitory activity on proliferation
Description: (§1) I-30 and I-33 were selected to test their activity on the proliferation of human cancer cells originated from different tissue types.

B-BT474 = test: Proliferation of human cancer cell panel; type: cell-based; conditions: read-out: inhibitory activity on proliferation
Description: as §1

[2] = system: rhabdomyosarcoma cells S-RH30; test: Proliferation of human cancer cell panel; type: cell-based; conditions: read-out: inhibitory activity on proliferation
Description: as §1

[3] = system: gastric cancer cells G-MKN-45; test: Proliferation of human cancer cell panel; type: cell-based; conditions: read-out: inhibitory activity on proliferation
Description: as §1

[4] = system: colorectal cancer cells C-LOVO; test: Proliferation of human cancer cell panel; type: cell-based; conditions: read-out: inhibitory activity on proliferation
Description: as §1

LG-NCI-H460 = test: Proliferation of human cancer cell panel; type: cell-based; conditions: read-out: inhibitory activity on proliferation
Description: as §1

O-SKOV-3 = test: Proliferation of human cancer cell panel; type: cell-based; conditions: read-out: inhibitory activity on proliferation
Description: as §1

[5] = system: endometrial cancer cells E-RL95-2; test: Proliferation of human cancer cell panel; type: cell-based; conditions: read-out: inhibitory activity on proliferation
Description: as §1

[6] = system: colon cancer cells C-HCT-116; test: Proliferation of human cancer cell panel; type: cell-based; conditions: read-out: inhibitory activity on proliferation
Description: as §1

P-PC-3 = test: Proliferation of human cancer cell panel; type: cell-based; conditions: read-out: inhibitory activity on proliferation
Description: as §1

B-MCF-7 = test: Proliferation of human cancer cell panel; type: cell-based; conditions: read-out: inhibitory activity on proliferation
Description: as §1

LG-NCI-H23 = test: Proliferation of human cancer cell panel; type: cell-based; conditions: read-out: inhibitory activity on proliferation
Description: as §1

[7] = system: human neuroglioma U87-MG xenograft; test: Growth of U87-MG xenograft subcutaneously transplanted in nude mouse; type: in vivo; conditions: 50 mg/kg p.o. once a day
Method: Well-developed tumors in nude mice were cut into 1.5 mm3 fragments and transplanted s.c. into the right flank of nude mice under sterile conditions. The diameters of subcutaneously transplanted tumours in nude mice were measured with a vernier calipe. […] Control groups were given the same amount of blank solvent, and treatment groups received tested compounds (p.o.). Compounds were administrated once a day for three weeks. Throughout the experiment, the sizes of the tumours were measured twice per week and meanwile the body weights of mice were weighed. The tumour volume (TV) was calculated as follows: TV=½×a×b2, wherein a and b represent the length and width, respectively. The individual relative tumour volume (RTV) was calculated as follows: RTV=Vt/V0, where V0 is the volume at the beginning of the treatment and Vt is the volume measured every time. Evaluation index of antitumor activity was relative tumor proliferation rate T/C (%), the calculation formula of which was as follows: T/C (%)=(TRTV/CRTV)×100%, TRTV:RTV of treatment group; CRTV:RTV of negative control group.

PI3Kα = PI3Kα (Homo sapiens (Human), UniProt P42336); test: Inhibition on PI3K kinase activity (Kinase-Glo Plus luminescent assay); type: biochemical; conditions: 2 μM ATP, 1 hour at room temperature
Method: The activity of purified kinase was detected with Kinase-Glo® Plus kinase luminescent assay by measuring the amount of the remaining […] in the solution after the kinase reaction was completed. […] After reaction was performed for 1 hour at room temperature, 10 μL of Kinase Glo-Plus mixture was added and incubated for 1 hour to quench the reaction.

[8] = system: human rhabdomyosarcoma Rh30 cells; test: Proliferation of Rh30 cells (sulforhodamine B); type: cell-based; conditions: Homo sapiens, Rh30, 72 h; read-out: IC50 against proliferation of Rh30 cells
Method: Rh30 cells were seeded in a 96-well plate at 3000 cells/well. After the cells adhered, tested compounds at concentration of 10, 3, 1, 0.3, or 0.1 μM were added, and incubated for 72 h. The culture media were discarded and cells were fixed with trichloroacetic acid. After washed with distilled water for five times and dried, sulfonylrhodamine B was added. After washed with 1% glacial acetic acid for five times and dried, trihydroxymethylaminomethane buffer was added. OD value was measured by using a microplate reader at a wavelength of 560 nm.

Sequence of PI3Kα (P42336 whole entry): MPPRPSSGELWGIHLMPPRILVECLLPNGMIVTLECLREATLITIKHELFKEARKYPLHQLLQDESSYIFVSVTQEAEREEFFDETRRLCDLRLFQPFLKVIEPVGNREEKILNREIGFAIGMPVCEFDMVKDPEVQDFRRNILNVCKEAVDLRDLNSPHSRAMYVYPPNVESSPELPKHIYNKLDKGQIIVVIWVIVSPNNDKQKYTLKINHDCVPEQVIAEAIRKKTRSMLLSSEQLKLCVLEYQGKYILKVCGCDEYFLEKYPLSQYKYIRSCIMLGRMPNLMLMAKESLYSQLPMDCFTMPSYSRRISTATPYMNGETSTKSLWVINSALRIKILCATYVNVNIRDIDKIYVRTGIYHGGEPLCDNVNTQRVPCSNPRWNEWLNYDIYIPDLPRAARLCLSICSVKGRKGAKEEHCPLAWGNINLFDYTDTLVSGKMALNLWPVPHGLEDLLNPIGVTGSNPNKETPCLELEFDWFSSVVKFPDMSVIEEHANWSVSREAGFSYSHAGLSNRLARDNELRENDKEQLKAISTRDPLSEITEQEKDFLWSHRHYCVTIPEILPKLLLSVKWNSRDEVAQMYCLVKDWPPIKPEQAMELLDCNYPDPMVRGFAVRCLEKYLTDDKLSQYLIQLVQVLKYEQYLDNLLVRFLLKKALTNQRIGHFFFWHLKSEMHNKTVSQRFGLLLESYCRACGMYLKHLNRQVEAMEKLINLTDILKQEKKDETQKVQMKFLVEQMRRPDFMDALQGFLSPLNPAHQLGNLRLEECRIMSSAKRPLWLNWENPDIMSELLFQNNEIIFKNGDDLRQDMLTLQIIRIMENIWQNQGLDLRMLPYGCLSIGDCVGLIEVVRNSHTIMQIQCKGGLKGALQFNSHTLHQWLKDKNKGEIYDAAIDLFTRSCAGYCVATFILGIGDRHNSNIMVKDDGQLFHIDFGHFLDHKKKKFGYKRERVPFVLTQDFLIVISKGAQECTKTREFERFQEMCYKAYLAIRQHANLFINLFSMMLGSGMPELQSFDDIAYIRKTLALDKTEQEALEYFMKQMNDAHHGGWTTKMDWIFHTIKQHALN
Sequence of PI3Kα (P27986 whole entry partner): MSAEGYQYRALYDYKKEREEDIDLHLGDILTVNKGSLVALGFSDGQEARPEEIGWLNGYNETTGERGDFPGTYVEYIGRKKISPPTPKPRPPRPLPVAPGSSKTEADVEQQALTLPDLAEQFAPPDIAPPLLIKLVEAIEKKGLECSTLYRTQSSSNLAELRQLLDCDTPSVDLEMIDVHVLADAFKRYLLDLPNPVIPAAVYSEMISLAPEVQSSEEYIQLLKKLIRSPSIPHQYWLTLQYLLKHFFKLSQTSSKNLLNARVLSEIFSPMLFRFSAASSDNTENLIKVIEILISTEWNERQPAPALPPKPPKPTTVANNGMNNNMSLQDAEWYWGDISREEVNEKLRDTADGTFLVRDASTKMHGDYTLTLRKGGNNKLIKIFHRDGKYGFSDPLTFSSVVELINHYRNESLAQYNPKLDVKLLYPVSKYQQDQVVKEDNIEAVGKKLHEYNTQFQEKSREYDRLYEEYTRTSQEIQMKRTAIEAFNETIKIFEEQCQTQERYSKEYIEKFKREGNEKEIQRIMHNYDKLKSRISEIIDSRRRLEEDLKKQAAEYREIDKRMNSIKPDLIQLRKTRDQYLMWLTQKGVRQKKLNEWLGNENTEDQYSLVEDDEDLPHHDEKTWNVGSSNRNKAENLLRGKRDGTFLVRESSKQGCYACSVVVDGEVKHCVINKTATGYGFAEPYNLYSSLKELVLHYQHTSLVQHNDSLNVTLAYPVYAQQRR

Structure (SMILES)	pIC50 [1]	pIC50 (B-BT474)	pIC50 [2]	pIC50 [3]	pIC50 [4]	pIC50 (LG-NCI-H460)	pIC50 (O-SKOV-3)	pIC50 [5]	pIC50 [6]	pIC50 (P-PC-3)	pIC50 (B-MCF-7)	pIC50 (LG-NCI-H23)	also measured
CS(=O)(=O)N1CCN(Cc2cc3nc(-c4cccc5[nH]ncc45)nc(N4CCOCC4)c3s2)CC1 [GDC0941, reference compound]	5.49	6.59	6.32	5.78	6.29	5.78	6.50	5.66	5.09	6.20	6.28	5.92	Relative tumor proliferation rate T/C ([7]; d0): 100.00%; Relative tumor proliferation rate T/C ([7]; d3): 75.12%; Relative tumor proliferation rate T/C ([7]; d7): 79.34%; Relative tumor proliferation rate T/C ([7]; d10): 74.75%; Relative tumor proliferation rate T/C ([7]; d14): 56.86%; Relative tumor proliferation rate T/C ([7]; d17): 53.57%; Relative tumor proliferation rate T/C ([7]; d21): 51.40%
CCNC(=O)Nc1cc(C(F)(F)F)c(-c2nc(N3CCOCC3)c3cc(CN4CCN(S(C)(=O)=O)CC4)cn3n2)cn1 [Compound I-30, 1-ethyl-3-(5-(6-((4-(methylsulfonyl)piperazin-1-yl)methyl)-4-morpholinopyrrolo[2,1-f][1,2,4]triazin-2-yl)-4-(trifluoromethyl)pyridin-2-yl)urea]	5.49	7.49	6.59	5.81	6.31	6.18	7.34	5.70	5.01	6.22	5.60	6.05	pIC50 (PI3Kα): 8.09; pIC50 [8]: 6.09
